Target: T1, Plk1 (Homo sapiens, UniProt P53350)
T1 construct: in the presence of 15 nM Plk1 (A20-K338)
Experiment: Plk1 inhibition assay (radioactive-phosphate incorporation)
Type: biochemical
Conditions: Ki(app)
Procedure: The compounds of the present invention are evaluated as inhibitors of human PLK kinase using the following assays.
Compounds were screened for their ability to inhibit Plk1 using a radioactive-phosphate incorporation assay. Assays were carried out in a mixture of 25 mM HEPES (pH 7.5), 10 mM MgCl2, and 1 mM DTT. Final substrate concentrations were 50 μM [γ-33P]ATP (136 mCi 33P ATP/mmol ATP, Amersham Pharmacia Biotech/Sigma Chemicals) and 10 μM peptide (SAM68 protein Δ332-443). Assays were carried out at 25° C. in the presence of 15 nM Plk1 (A20-K338). An assay stock buffer solution was prepared containing all of the reagents listed above, with the exception of ATP and the test compound of interest. 30 μL of the stock solution was placed in a 96 well plate followed by addition of 2 μL of DMSO stock containing serial dilutions of the test compound (typically starting from a final concentration of 10 μM with 2-fold serial dilutions) in duplicate (final DMSO concentration 5%). The plate was pre-incubated for 10 minutes at 25° C. and the reaction initiated by addition of 8 μL [γ-33P]ATP (final concentration 50 μM). […]
After removing mean background values for all of the data points, Ki(app) data were calculated from non-linear regression analysis of the initial rate data using the Prism software package (GraphPad Prism version 3.0cx for Macintosh, GraphPad Software, San Diego Calif., USA). […]

T1 sequence (P53350 20-338): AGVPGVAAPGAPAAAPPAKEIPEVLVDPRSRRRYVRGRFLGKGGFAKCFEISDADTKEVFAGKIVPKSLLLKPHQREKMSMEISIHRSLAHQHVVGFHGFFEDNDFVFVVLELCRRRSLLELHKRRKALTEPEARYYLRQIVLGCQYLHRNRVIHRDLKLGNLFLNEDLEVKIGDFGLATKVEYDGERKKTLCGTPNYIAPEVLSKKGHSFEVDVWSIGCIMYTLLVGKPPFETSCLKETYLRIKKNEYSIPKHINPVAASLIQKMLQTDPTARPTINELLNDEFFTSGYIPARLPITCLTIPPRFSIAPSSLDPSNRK

Ki: < 10 nM
SMILES: CC(Oc1cc(-c2cc(-c3cccc(Cl)c3)cnc2N)sc1C(N)=O)c1ccccc1Cl (stereo not shown) [I-3, 5-[2-Amino-5-(3-chloro-phenyl)-pyridin-3-yl]-3-[1-(2-chloro-phenyl)-ethoxy]-thiophene-2-carboxylic acid amide]

Reference: patent US8853244B2, “Thiophene-carboxamides useful as inhibitors of protein kinases” (Vertex Pharmaceuticals Incorporated, priority 2006, dated 2014)
